# Assay results taken from patent US20160000804A1, “INHIBITORS OF NA(V) 1.9 CHANNEL ACTIVITY AND USES THEREOF FOR TREATING PAIN” (UNIVERSITE D'AIX-MARSEILLE, priority 2013, published 2016).
# Entries after “also recorded” stand apart in the source; their conditions may differ.
# Columns and labels:
# mice = experiment: Carrageenan model of persistent paw inflammation, von Frey test; type: in vivo
# Method: Persistent paw inflammation was induced by intraplantar injection of 20 μl of 2% λ-carrageenan (Sigma) in mice. Control animal received only vehicle saline solution (0.9% NaCl). 1 hr prior to carrageenan injection, animals received intra peritoneal injection of either saline or ibuprofen (75 mg/kg in saline solution). Mechanical pain threshold was assessed using von Frey filaments (BioSeb) calibrated from 0.008 to 4.000 g. The filaments were applied five times each, in order of increasing forces, and pressed perpendicularly to the plantar surface of the hindpaw until they bent. The first filament which evoked at least 3/5 response was assigned as the pain threshold in grams.
# Nav1.9 = experiment: Whole-cell voltage clamp recording of Nav1.9 activation curve in DRG neurons; type: cell-based; details: for reversal of the inflammatory cocktail-induced shift of Nav1.9 activation curve: cholesterol supply in presence of inflammatory cocktail; for shift of Nav1.9 activation curve: substance alone versus control neuron, MβCD 20 mM, water soluble cholesterol 20 mM, cholesterol oxidase 4 U/ml, 15 min 37° C.
# Method: Dissociation of DRG neurons has been previously described (Coste et al., 2004; Coste et al., 2007). In brief, thoraco-lumbar DRG neurons were excised and incubated in enzyme solution containing 2 mg/ml of collagenase IA (Sigma) for 45 min at 37° C. before trituration in Hanks' medium (Life Technologies). Culture medium was Dulbecco's modified Eagle's medium (DMEM, Life Technologies) supplemented with 10% heat-inactivated fetal calf serum, 50 U/ml penicillin-streptomycin, 2 mML-glutamine, 25 mM glucose, 2 ng/ml glial-derived neurotrophic factor (GDNF) (all from Life Technologies), and 25 ng/ml nerve growth factor (NGF, Millipore). Cells were seeded on 35 mm cultures dishes (Nunc) coated with 2 mg/ml laminin (Sigma) and maintained in a humidified atmosphere (5% CO2, 37° C.) for 16-24 h before further cholesterol manipulations or electrophysiological recording.
# Patch pipettes had resistances of 3-3.5 MΩ for whole-cell voltage clamp recordings. Intracellular solution used in this study contained: 130 CsCl, 10 HEPES, 8 NaCl, 5 EGTA, 2.4 CaCl2, 1 MgCl2 (pH 7.3, 298 mOsm/l). […] Extracellular solution contained 500 nM tetrodotoxin (TTX) as well as 1 mM amiloride and 50 μM La^3+ in order to block Ca^2+ currents without altering NaN/Nav1.9 properties (Coste et al., 2007). […]. Extracellular media were exchanged using a gravity-fed bath perfusion system at a flow rate of 2-5 ml/min, while bath solution was removed by continuous suction. Recycling was used to reduce the amount of TTX used. Stock solutions of TTX (0.1 mM) and La^3+ (1M) were prepared in water. Stock solution of amiloride hydrochloride (1M) was made in dimethylsulfoxyde (final concentration, 0.1%).
# For drugs application, DRG cultures were incubated for 15 min at 37° C. in DMEM containing freshly prepared MβCD (20 mM), water soluble cholesterol (20 mM), or cholesterol oxidase (4 U/ml). The inflammatory cocktail was incubated in extracellular solution for at least 20 min at room temperature (RT).
# Data were acquired with an Axopatch 200B amplifier (Axon Instruments), filtered at 2 kHz, and digitally sampled at 20 kHz using PCLAMP 10 software. Currents were leak subtracted using a P/6 protocol. Voltage errors were minimized using 70-85% series resistance compensation. Whole-cell recording were begun 1 min after achieving the whole-cell configuration, to allow Cs^+ to equilibrate and to allow Nav1.9 channels to recover from slow inactivation. Conductance-voltage curves were calculated from the peak current according to the equation G=I/(V−Erev), where V is the test pulse potential and Erev the reversal potential calculated according to the Nernst equation. The activation curve (G-V) was fitted using the Boltzmann function: G/Gmax=1/(1+exp[(V1/2−V)/k]), where G/Gmax is the normalized conductance, V1/2 is the potential of half-maximum channel activation, and k is the steepness factor.
# [1] = system: wild type and Nav1.9 KO mice; experiment: Von Frey test in non-inflamed animals; type: in vivo; details: intraplantar injection, non-inflamed wild type and Nav1.9 KO mice
# Method: (§1) Methyl βcyclodextrin or α-cyclodextrin (both from sigma) were diluted in saline buffer prior to injection. Methyl βcyclodextrin/cholesterol complex (40 mg of cholesterol/g of complex) also called soluble cholesterol was purchased (from Sigma). Unless otherwise states, all cyclodextrin or cyclodextrin/cholesterol complexes were injected at a 40 mM concentration of cyclodextrin corresponding to 5.6 mM of cholesterol in the complex. Mechanical pain threshold was assessed using von Frey filaments (BioSeb) calibrated from 0.008 to 4.000 g. The filaments were applied five times each, in order of increasing forces, and pressed perpendicularly to the plantar surface of the hindpaw until they bent. The first filament which evoked at least 3/5 response was assigned as the pain threshold in grams.
# arthritic mice [2] = experiment: CFA induced chronic inflammation (monoarthritis), dynamic weight bearing; type: in vivo
# Method: Chronic inflammation (monoarthritis model) was induced under 2% isoflurane anesthesia by two subcutaneous injections of 15 μl around the tibio-tarsal joint of mice with complete Freund adjuvant (CFA), containing 5 μg/μl heat-killed Mycobacterium butyricum (Becton, Dickinson and cie). The animals' weight distribution on the four limbs was assessed using the dynamic weight bearing test (BioSeb). This new incapacitance test consists in a continuous measurement of all pressure points applied by a freely moving animal, allowing a quantitative evaluation of the weight imbalance caused by paw mechanical allodynia. Mice were placed in an 11×11×22 cm cage with a 44×44 sensor cells grid on the floor. The pressure applied on sensor cells by the animal's paws is recorded at a 10 Hz frequency over a 5 min period. Pressure and surface detection thresholds were determined automatically for each animal by the Dynamic weight bearing 1.3.2h software (Bioseb). After the manual attribution of each pressure point to the corresponding paw, the mean weight applied on each paw is calculated. Unilateral pain is finally evaluated trough the ipsi/contralateral hindpaws weight ratio, the weight applied on forepaws, and the percentage of time spent raising ipsilateral hindpaw.
# arthritic mice [3] = experiment: CFA chronic arthritis pain, transdermal gel, mechanical pain; type: in vivo; details: gel application; cholesterol 28 mM or ibuprofen 5%
# Method: Chronic inflammation (monoarthritis model) was induced under 2% isoflurane anesthesia by two subcutaneous injections of 15 μl around the tibio-tarsal joint of mice with complete Freund adjuvant (CFA), containing 5 μg/μl heat-killed Mycobacterium butyricum (Becton, Dickinson and cie). Mechanical pain threshold was assessed using von Frey filaments (BioSeb) calibrated from 0.008 to 4.000 g. The filaments were applied five times each, in order of increasing forces, and pressed perpendicularly to the plantar surface of the hindpaw until they bent. The first filament which evoked at least 3/5 response was assigned as the pain threshold in grams.
# [4] = system: wild type and Nav1.9 KO mice; experiment: Von Frey test after intraplantar injection of cyclodextrins (cholesterol depletion); type: in vivo; details: for mechanical allodynia / tactile hyperalgesia (von Frey filament test): intraplantar injection of 20 μl of a 40 mM solution
# Method: as §1
# [5] = periarticular injection, 20 μl of a 5.6 mM solution, versus saline
compound,measurement,setting,value
CC(C)CCC[C@@H](C)[C@H]1CC[C@H]2[C@@H]3CC=C4C[C@@H](O)CC[C@]4(C)[C@H]3CC[C@]12C [cholesterol],"carrageenan induced mechanical allodynia, transdermal delivery","mice; gel with 5.6 mM cholesterol applied for 1.5 hrs, versus control gel",kills carragenin induced pain
same,lambda-carrageenan-induced tactile hyperalgesia (von Frey),"mice; intraplantar injection of soluble cholesterol, 5, 6 mM of cholesterol",inhibits inflammatory evoked pain
same,reversal of the inflammatory cocktail-induced shift of Nav1.9 activation curve,Nav1.9,reverses this shift of activation
same,reversal of the inflammatory cocktail-induced shift of Nav1.9 activation curve,Nav1.9; listed as Cholesterol,reverses the shift
same,shift of Nav1.9 activation curve,Nav1.9,does not modify activation properties of Nav1.9
same,mechanical threshold in physiological non-inflamed conditions,[1],without changing physiological mechanical threshold
same,mechanical threshold in physiological non-inflamed conditions,[1]; listed as Cholesterol,does not modify mechanical sensibility
same,weight put on tail,arthritic mice [2]; periarticular cholesterol injection versus saline injected mice,reduces the weight put on tail
same,posture / behavioural parameters (dynamic weight bearing),arthritic mice [2]; [5],improved all posture parameters examined; also recorded: improve behavioural parameter of arthritic mice
same,weight borne by inflamed limbs,arthritic mice [2]; [5],bear more weight than limbs injected with saline solution
same,"chronic arthritis mechanical pain, transdermal delivery",arthritic mice [3],much efficient to treat arthritic inflammatory pain than a 5% ibuprofen gel
CC(C)Cc1ccc(C(C)C(=O)O)cc1 (stereo not drawn) [ibuprofen],effect on methyl-beta-cyclodextrin-induced allodynia (mechanical threshold),"[4]; intraperitoneal 75 mg/kg, wild type and Nav1.9 KO mice",does not modify methyl-beta-cyclodextrin-induced tactile hyperalgia; also recorded: does not reverse allodynic phenotype; also recorded: did not change mechanical threshold
same,lambda-carrageenan-induced tactile hyperalgesia (von Frey),"mice; intraperitoneal injection (75 mg/kg, 1 hr prior to carrageenan)",reverse lambdα-carrageenan-induced tactile hyperalgesia
"OC[C@H]1O[C@@H]2O[C@H]3[C@H](O)[C@@H](O)[C@@H](O[C@H]4[C@H](O)[C@@H](O)[C@@H](O[C@H]5[C@H](O)[C@@H](O)[C@@H](O[C@H]6[C@H](O)[C@@H](O)[C@@H](O[C@H]7[C@H](O)[C@@H](O)[C@@H](O[C@H]1[C@H](O)[C@H]2O)O[C@@H]7CO)O[C@@H]6CO)O[C@@H]5CO)O[C@@H]4CO)O[C@@H]3CO [α-CD, α-cyclodextrin]",mechanical allodynia / tactile hyperalgesia (von Frey filament test),[4]; Nav1.9 KO mice,did not induce mechanical allodynia
same,mechanical allodynia / tactile hyperalgesia (von Frey filament test),[4]; wild type mice,did not induce mechanical allodynia
same,mechanical allodynia / tactile hyperalgesia (von Frey filament test),"[4]; wild type mice, listed as Alphα-cyclodextrin",does not induce tactile hyperalgia
cholesterol oxidase,shift of Nav1.9 activation curve,Nav1.9,induces the same shift as inflammatory cocktail; also recorded: shift Nav1.9 activation curves to hyperpolarised potential
methyl-beta-cyclodextrin [MBCD],mechanical allodynia / tactile hyperalgesia (von Frey filament test),[4]; Nav1.9 KO mice,markedly reduced
same,mechanical allodynia / tactile hyperalgesia (von Frey filament test),[4]; wild type mice,induces a strong mechanical allodynia
same,shift of Nav1.9 activation curve,Nav1.9,shift Nav1.9 activation curves to hyperpolarised potential
same,shift of Nav1.9 activation curve,Nav1.9; listed as MβCD,induces the same shift as inflammatory cocktail
